From patent publication US20240366560A1, “SMALL MOLECULE TREATMENT OF FATTY LIVER DISEASE AND HCC” (ScandiEdge Therapeutics AB, priority 2021, published 2024)

Assays:
HSD-fed rats = assay: In vivo efficacy study in HSD-fed steatosis rats: histopathological examination; details: 30 mg/kg; for degeneration in renal tubule epithelium / fattening in the parenchyma cells of pancreas tissues / degeneration in hepatocytes in liver tissues / steatosis in hepatocytes in liver tissues: HSD 3w group: severe; for degeneration in hepatocytes in liver tissues / steatosis in hepatocytes in liver tissues: FIG. 3
Source text: In vivo efficacy studies. After 1-week acclimation period, rats were randomly separated into two groups: control group (n=5) and high sucrose group (n=20). The control group was fed with a standard diet while the others consumed high sucrose diet (HSD). Sucrose was purchased from Sigma Chemical Co. (St Louis, MO, USA) and supplied at the dose of 10% in the drink water for two weeks.
After 2 weeks, five rats in the HSD group were randomly sacrificed for conformation of NAFLD model. Then, the remaining rats in the HSD group were separated into three sub-groups (n=5): HSD group, HSD plus BX-912 group and HSD plus JNK-IN-5A group. BX-912 and JNK-IN-5A were dissolved in DMSO and were orally administrated using oral gavage for one week (30 mg/kg/day). The HSD group were treated with vehicle solution only.
At the end of the experiment, rats were sacrificed after being anesthetized. Blood samples were collected from the abdominal aorta and centrifuged at 8000 rpm for 15 min at 4° C. The plasma was separated and stored at −80° C. until further analysis. Other internal organs, including the heart, adipose tissues, liver, kidney, muscle, intestine (duodenum, ileum, jejunum), pancreas, colon and stomach were immediately removed and then snap frozen in liquid nitrogen and stored at −80° C.; the liver was also fixed in 10% formaldehyde for histopathological examination.
Histopathological examination. The liver tissues were fixed in 10% buffered formaldehyde solution. After fixation, the tissues were passed through graded alcohol and xylene series and embedded in paraffin blocks. 5 micrometer thick sections were taken serially from the paraffin blocks. Histopathological changes were evaluated by performing hematoxylin eosin staining on the sections taken. Sections were evaluated according to histopathological findings as none (−), mild (+), moderate (++) and severe (+++).
Next, the efficacy of these two drugs in a steatosis rat study was investigated by feeding the animals with HSD. Five groups of 12-week-old rats (n=5) were raised. For two weeks, the first group was fed with CHOW and the remaining four groups were fed with HSD. […] One of the remaining groups was fed with HSD (HSD 3w) for seven days. Another one of the remaining groups was fed with HSD plus BX-912 (30 mg/kg) for seven days. The last one of the remaining groups was fed with HSD plus JNK-IN-5A (30 mg/kg) for seven days. After said seven days, all three groups were sacrificed, and tissue samples from the liver and other major organs and blood samples were collected for efficacy examination. A histopathological and immunohistochemical analysis was performed on the liver samples and other major organs obtained from the three rat groups.

Pklr [1] = assay: In vivo efficacy study in rats: hepatic Pklr expression; details: rat animal study
Procedure: In vivo efficacy studies. […] The HSD group were treated with vehicle solution only.

PKLR [2] = assay: PKLR protein level by western blot in HepG2, 2-day drug treatment; format: cell-based; details: HepG2, two days of treatment, dosages per FIG. 5, P<0.05, FIG. 2A
Procedure: WT HepG2 was included in this study and cultured by Roswell Park Memorial Institute (RPMI, […], Sigma Aldrich) 1640 Medium with 10% fetal bovine serum (FBS) and 1% penicillin-streptomycin (PS). To induce a steatosis model into WT HepG2 cells, high glucose Dulbecco's Modified Eagle Media (DMEM, […]/[…], Sigma-Aldrich) containing 10% FBS and 1% PS was used as medium for one week, together with 10 μg/mL insulin and 10 μM T0901317. All of cells were incubated in the incubator with 5% CO2 and 37° C. (Thermo […]). Fresh medium was provided every two days. As for drug-screening, different numbers of HepG2 cells were seeded for distinct experiments. More in details, 40,000 cells and 500,000 cells were used for 2-day-drug treatment in 96-well-plate and 6-well plate, respectively, while 80,000 cells and 300,000 cells were used for one-week drug treatment in 96-well plate and 6-well plate, respectively. […] Fresh medium was provided every two days. Protein content levels were detected by western blot. After the respective treatment of drugs, the cell pellets were lysed in cell lytic M, followed by protein extraction from supernatant (10 min, 13,000r/min centrifuge). Extracted cell lysate was stored in -20° C. Proteins were quantified through Bovine albumin serum (BAS) standard curve with protein assay dye reagent (BIO-RAD). The proteins were separated by SDS-PAGE with 100v in 90 min by mini-protein TGX precast gels (4-15%, 15 wells, 15 μl/well, BIO-RAD), and then transfer to Mini PVDF transfer package through transfer system (Transfer-Turbo, BIO-RAD). After 30 min blocking with 5% skim milk in cold room (4° C.) and washing with TBST, membrane was cut by the size of interested proteins. Primary antibodies were added into the corresponding membrane sections for overnight binding. Then the membranes were washed with TBST, and the secondary antibodies were incubated for 1 h in cold room. The following antibody were used: (Goat pAb to Rb lg, ab205718, abcam; Rb pAb to beta-actin, ab8227, abcam; […]; Rb pAb to fatty acid synthase, ab99539, abcam). The bindings were imaged by immunostaining and machine (ImageQuant LAS 500). All antibodies were purchased from Abcam online, and βactin was used as global normalized protein. After measurement, the strength of signal for each protein was quantified by ImageJ. The background noise was removed, and all results were normalized by the levels of β-actin. To determine the inhibitory effects of these drugs on the expression level of PKLR, HepG2 was selected as the in vitro model for coherence. […] HepG2 cells were treated with these drugs for two days with different dosages due to their potential cellular toxicities (FIG. 5), and the PKLR protein level was the measured by western blotting. The level of protein expression of PKLR of the drug-treated groups was compared to that of the Ctrl group after normalizing with β-actin.

With `N#Cc1c(NC(=O)c2cccc3ccccc23)sc2c1CCCC2` [JNK-IN-5A, N-(3-cyano-4,5,6,7-tetrahydrobenzo [b]thien-2-yl)-1-naphthalenecarboxamide] the “toxic effect on small intestine, large intestine, stomach, heart and muscle tissues” value (HSD-fed rats; HSD-fed rats, 7 days) was “no toxic effect”, the “degeneration in renal tubule epithelium” value (HSD-fed rats; HSD-fed rats, 7 days) was “mild” and the “fattening in the parenchyma cells of pancreas tissues” value (HSD-fed rats; HSD-fed rats, 7 days) was “mild”. For the same compound, the “degeneration in hepatocytes in liver tissues” value (HSD-fed rats; HSD-fed rats, 7 days) was “mild”, the “steatosis in hepatocytes in liver tissues” value (HSD-fed rats; HSD-fed rats, 7 days) was “mild” and the “hepatic Pklr expression in vivo” value (Pklr [1]) was “significantly decreased”. For the same compound, the “protein expression of PKLR vs Ctrl, normalized with β-actin” value (PKLR [2]) was “significantly down-regulated”.
With `O=C(Nc1cccc(Nc2ncc(Br)c(NCCc3cnc[nH]3)n2)c1)N1CCCC1` [BX-912, N-[3-[[5-bromo-4-[[2-(1H-imidazol-5-yl)ethyl]amino]-2-pyrimidinyl]amino]phenyl]-1-pyrrolidinecarboxamide] the “degeneration in renal tubule epithelium” value (HSD-fed rats; HSD-fed rats, 7 days) was “mild”, the “fattening in the parenchyma cells of pancreas tissues” value (HSD-fed rats; HSD-fed rats, 7 days) was “mild” and the “degeneration in hepatocytes in liver tissues” value (HSD-fed rats; HSD-fed rats, 7 days) was “Mild”. The “steatosis in hepatocytes in liver tissues” value (HSD-fed rats; HSD-fed rats, 7 days) was “moderate”, the “toxic effect on small intestine, large intestine, stomach, heart and muscle tissues” value (HSD-fed rats; rat, in vivo) was “no toxic effect” and the “hepatic Pklr expression in vivo” value (Pklr [1]) was “significantly decreased”. For the same compound, the “protein expression of PKLR vs Ctrl, normalized with β-actin” value (PKLR [2]) was “significantly down-regulated”.
